Key:
GLI1 protein levels = experiment: Western blot GLI1 protein expression in ASZ001 cells; type: cell-based, murine; conditions: 10 and 25 μM
Description: (§1) ASZ001 cells were plated as described above and treated with drugs or vehicle control. Following incubation, cells were washed with chilled PBS and lysed with RIPA buffer containing […] PMSF protease inhibitor (Thermo Scientific #26978). Supernatant was collected following 15 min centrifugation at 12,000 rpm and 4° C. Protein concentrations from cell extracts were determined through the BCA kit (Pierce #23228) per the manufacturer's instructions. Proteins from either cell lysate or cell-free biochemical assay were then loaded on 12% SDS-PAGE. Following electrophoresis, proteins were transferred onto nitrocellulose membrane at 100 V for 120 min at 4° C. On a clean tray with constant gentle shaking, the membrane was sequentially submerged in 5% BSA for 1 h, and incubated with the primary antibody indicated overnight at 4° C. After washes with TBST, the appropriate secondary antibody was added to the tray for a 2 h incubation at RT. Chemiluminescent detection on film was visualized using ECL reagents (BioRad #1705060) and subsequently quantitated using Image J (http://imagej.nih.gov). Primary antibodies were used at 1:2000 dilution and are as follows: GLI1 (#MA5-32553); Gli2 (#PA5-79314); β-Actin (#PA1-16889). Secondary antibody (Goat anti-Rabbit, #32460) was used at a 1:5000 dilution. All antibodies were purchased from Invitrogen.

GLI2 protein expression = experiment: Western blot GLI2 protein expression in ASZ001 cells; type: cell-based, murine; conditions: 25 μM
Description: as §1

In the case of `Cc1ccc2ccc(C(Nc3ccccn3)c3ccncc3)c(O)c2n1` (stereo not shown) [Compound 39, 7-((Pyridin-4-yl)(pyridin-2-ylamino)methyl)-2-methylquinolin-8-ol], the “GLI1 protein levels (in words)” value (GLI1 protein levels) is reported as “significantly reduced” and the “GLI2 protein expression (in words)” value (GLI2 protein expression) is reported as “significantly suppressed”.
In the case of `Cc1ccc2ccc(C(Nc3ccccn3)c3ccc(N4CCCC4=O)cc3)c(O)c2n1` (stereo not shown) [Compound 48, 7-((4-(2-Oxopyrrolidin-1-yl)phenyl)(pyridin-2-ylamino)methyl)-2-methylquinolin-8-ol], the “GLI1 protein levels (in words)” value (GLI1 protein levels) is reported as “significantly reduced” and the “GLI2 protein expression (in words)” value (GLI2 protein expression) is reported as “significantly suppressed”.
